{"source": "patent US9675580B2", "about": "“Method of treatment for enhancing exercise performance” (priority 2012, dated 2017)", "key": {"ICR mice [1]": {"test_system": "ICR mice", "assay": "Treadmill run to exhaustion (endurance exercise capacity)", "format": "in vivo, mouse", "settings": "50 mg/kg oral daily for two weeks, vs phosphate buffered saline control, p<0.0005, FIG. 1", "experimental": "Ten 8-week-old ICR mice were purchased from KOATECH, precultured for 1 week, and then divided into two groups, each group having five mice. The first group was set up as a negative control by administering phosphate buffered saline, and to the second group, myricetin was orally administered daily at a concentration of 50 mg/kg for two weeks. To measure a change in endurance exercise capacity due to myricetin, the animals in the negative control and the myricetin-administered group were run on a treadmill (Panlab&Harvard, Spain). An exercise performance protocol was configured to make the mice run until exhaustion at 25 cm/sec for 20 minutes, 30 cm/sec for 20 minutes, 33 cm/sec for 20 minutes, 36 cm/sec for 20 minutes and 36 cm/sec for 15 minutes with a gradient of 5°, and 30 cm/sec for 15 minutes and 41 cm/sec with a gradient of 10°. To adapt the mice to running on the treadmill, the day before the experiment, they were run at 27 cm/sec for 10 minutes with a gradient of 5°. The mice were not fed for two hours before the running on the treadmill on the day of the experiment, and then the maximum exercise capacity of the experimental animals was measured after the running on the treadmill. […]"}, "ICR-series mice": {"test_system": "ICR-series mice", "assay": "Grip strength test (maximum muscle strength)", "format": "in vivo, mouse", "settings": "50 mg/kg oral daily for two weeks, vs negative control, p<0.005 / p<0.00005, FIGS. 2A and 2B", "experimental": "To measure an effect of myricetin on enhancing endurance exercise capacity of a mouse, ten 8-week-old ICR-series mice having a body weight of 30±5 g were used. As described in Example 1, the experimental animals were divided into two groups. The first group was determined as a negative control, and to the second group, myricetin was orally administered daily at a concentration of 50 mg/kg for two weeks. To measure a change in the maximum strength of a muscle due to myricetin, a grip strength test (Bioseb, France) was performed on the animals in the control group and the myricetin-administered group. Maximum grip strengths of the front paws and rear paws were measured by pulling a tail of the mouse backward while the mouse grabbed a grip strength tester. The grip strength was measured three times, and an average value was used."}, "ICR mice [2]": {"test_system": "ICR mice", "assay": "Rotarod test (sensorimotor function)", "format": "in vivo, mouse", "settings": "50 mg/kg oral daily for 2 weeks, 4 to 40 rpm, vs negative control, p<0.005, FIG. 3", "experimental": "To confirm an effect of myricetin on a sensorimotor function of a mouse, 8-week-old ICR mice were purchased from KOATECH, precultured for 1 week, and divided into two groups, each group having 5 mice. As described in Example 1, the experimental animals were divided into two groups, and then the first group was determined as a negative control, and to the second group, myricetin was orally administered daily at a concentration of 50 mg/kg using a 1 ml syringe for 2 weeks.\nTo measure an effect of myricetin on the sensorimotor function, a rotarod test (Panlab&Harvard, Spain) was performed on the mice in the control group and the myricetin-administered group. The rotarod test was performed to measure motor coordination (exercise adaptation) and a sense of balance of the animal (Michel Pratte et al., Behavioural brain research 216:313-320, 2011; Medina R. et al., FEBS Lett. 180(1): 77-80, 1985).\nA tail of the mouse was put on a rotarod, and a speed of the rotarod was increased from 4 to 40 rpm within 5 minutes by an increase of 4 rpm at 30-second intervals. The time during which the mouse stayed on the rotarod was measured. The experiment was repeated five times, and the time during which the mouse stayed the longest on the rotarod was used as a result value."}, "SIRT-1 gene": {"test_system": "SIRT-1 gene", "assay": "Real time PCR gene expression in mouse myotube: SIRT-1", "format": "cell-based", "settings": "C2C12 myotubes, 10, 30 and 100 μM, 16 hours, corrected with β-actin, FIG. 4D", "experimental": "(§1) Mouse myoblasts were purchased from the Korean Cell Line Bank (KCLB), and base sequences of primers for β-actin, SIRT-1, PGC-1α, NRF-1 and PPAR-δ genes were as follows:\n(§2) 1×10^7 C2C12 (mouse myoblasts) differentiated into myotubes using 2% horse serum […]. The mouse myotube was treated with myricetin by concentration and cultured for 16 hours, RNA was extracted from the myotube using TRizol, and then cDNA was synthesized through reverse transcription PCR (RT-PCR).\n(§3) Real time PCR was performed using β-actin as a control and the primers for respective genes (95° C. for 3 minutes, <95° C. for 10 seconds, 60° C. for 10 seconds, 72° C. for 30 seconds>−39 cycles, 95° C. for 10 seconds, 65° C. for 5 seconds). The PGC-1α, NRF-1, PPAR-δ, and SIRT-1 were corrected with the β-actin, and the resulting value was obtained."}, "PGC-1α gene": {"test_system": "PGC-1α gene", "assay": "Real time PCR gene expression in mouse myotube: PGC-1α", "format": "cell-based", "settings": "C2C12 myotubes, 10, 30 and 100 μM, 16 hours, corrected with β-actin, FIG. 4A", "experimental": "as §1, §2, §3"}, "NRF-1 gene": {"test_system": "NRF-1 gene", "assay": "Real time PCR gene expression in mouse myotube: NRF-1", "format": "cell-based", "settings": "C2C12 myotubes, 10, 30 and 100 μM, 16 hours, corrected with β-actin, FIG. 4B", "experimental": "as §1, §2, §3"}, "PPAR-δ gene": {"test_system": "PPAR-δ gene", "assay": "Real time PCR gene expression in mouse myotube: PPAR-δ", "format": "cell-based", "settings": "C2C12 myotubes, 10, 30 and 100 μM, 16 hours, corrected with β-actin, FIG. 4C", "experimental": "as §1, §2, §3"}, "[3]": {"assay": "Change in body weight of SD rats", "format": "in vivo, rat", "settings": "50 mg/kg for 5 days, 225 g before administration, control group 285 g, FIG. 5A", "experimental": "7-week-old SD rats were purchased from KOATECH, precultured for 1 week, and randomly divided into two groups, each group having 5 rats. First, 50 mg/kg of myricetin was administered into the test group, and phosphate buffered saline was administered into the control group for 5 days. A change in body weight was measured using an electric measure (CAS, China). Before administration, the body weights of the rats in each group were the same as 225 g on average, but after the end of the experiment, the body weights of the rats in the control group were 285 g on average, and the body weights of the rats in the myricetin-administered group were 275 g on average (FIG. 5A)."}, "[4]": {"assay": "Daily food intake of SD rats (action metabolism meter)", "format": "in vivo, rat", "settings": "50 mg/kg for 5 days, FIG. 5B", "experimental": "7-week-old SD rats were purchased from KOATECH, precultured for 1 week, and randomly divided into two groups, each group having 5 rats. First, 50 mg/kg of myricetin was administered into the test group, and phosphate buffered saline was administered into the control group for 5 days. The investigation of food intake was performed by automatically measuring the daily food intake of the phosphate buffered saline-administered mouse and the myricetin-administered mouse using an action metabolism meter (Panlab&Harvard, Spain). The average food intake was determined as an average food intake of each of the five rats in one group."}}, "data": [{"compound": "O=c1c(O)c(-c2cc(O)c(O)c(O)c2)oc2cc(O)cc(O)c12", "note": "[myricetin, 3,5,7-trihydroxy-2-(3,4,5-trihydroxyphenyl)-4-chromenone]", "values": [{"measurement": "time run on the treadmill until exhaustion (maximum exercise capacity)", "setting": "ICR mice [1]", "value": "longer"}, {"measurement": "maximum grip strength of front paws and rear paws (maximum muscle strength)", "setting": "ICR-series mice", "value": "increased"}, {"measurement": "time during which the mouse stayed on the rotarod", "setting": "ICR mice [2]", "value": "longer"}, {"measurement": "expression of SIRT-1 compared to the control group", "setting": "SIRT-1 gene", "value": "increased two to three times"}, {"measurement": "expression of PGC-1α compared to the control group", "setting": "PGC-1α gene", "value": "increased two to three times"}, {"measurement": "expression of NRF-1 compared to the control group", "setting": "NRF-1 gene", "value": "increased two to three times"}, {"measurement": "expression of PPAR-δ compared to the control group", "setting": "PPAR-δ gene", "value": "increased two to three times"}, {"measurement": "body weight on average after the end of the experiment", "setting": "[3]", "value": 275, "unit": "g"}, {"measurement": "average daily food intake vs phosphate buffered saline-administered group", "setting": "[4]", "value": "smaller"}]}]}
